We go through four molecules from PubChem BioAssay (NCI).

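1) Cells in 96-well plates. 2) Compound, 48 h, 5 concentrations. 3) Linear interpolation between surrounding doses. 4) Unreached endpoint = highest concentration. TGI: total growth inhibition.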

Among the test systems are SF-295 CNS; OVCAR-5 ovarian; U251 CNS; NCI-H23 lung; HL-60(TB) leukemia; CCRF-CEM leukemia; OVCAR-3 ovarian; K-562 leukemia; UACC-62 melanoma; EKVX NSCLC; IGROV1 ovarian; HOP-92 NSCLC; SK-OV-3 ovarian; RXF 393 renal; UO-31 renal; KM12 colon; NCI/ADR-RES ovarian; SK-MEL-5 melanoma; NCI-H226 lung; HCC-2998 colon.
Holding throughout (test): DTP human tumour cell line panel, 48 h

As usually defined, the TGI is the concentration giving total growth inhibition. Read a low TGI as more potent growth arrest.

As for `COc1cc(N=Nc2ccc(OC)c(S(=O)(=O)O)c2)c(C)cc1N=Nc1ccc(/C=C/c2ccc(N=[N+]([O-])c3ccc(/C=C/c4ccc(N=Nc5cc(C)c(N=Nc6ccc(OC)c(S(=O)(=O)O)c6)cc5OC)cc4S(=O)(=O)O)c(S(=O)(=O)O)c3)cc2S(=O)(=O)O)c(S(=O)(=O)O)c1`, the TGI with SF-295 CNS, in the test with OVCAR-5 ovarian, in the test with U251 CNS, in the test on NCI-H23 lung, in the test with HL-60(TB) leukemia and in the test with CCRF-CEM leukemia was over 100 µM throughout. For the same molecule, the TGI in the test on OVCAR-3 ovarian, in the test on K-562 leukemia, with UACC-62 melanoma, in the test with EKVX NSCLC, in the test on IGROV1 ovarian and in the test with HOP-92 NSCLC was over 100 µM in each case. The TGI in the test on SK-OV-3 ovarian, in the test on RXF 393 renal, with UO-31 renal, in the test on KM12 colon, with NCI/ADR-RES ovarian and with SK-MEL-5 melanoma was over 100 µM each time. Further, the TGI with NCI-H226 lung and in the test with HCC-2998 colon was over 100 µM each time.

As for `CCCn1cc2c3c(cccc31)C1C=C(C)CN(C)C1C2` (stereo not drawn), the TGI in the test with SF-295 CNS worked out at 55.2 µM; with OVCAR-5 ovarian, 57 µM; with U251 CNS it was 52 µM; in the test on NCI-H23 lung, 61.8 µM; in the test on HL-60(TB) leukemia, 5.56 µM; in the test on CCRF-CEM leukemia it was 44.9 µM. Besides, the TGI was determined as 52.6 µM in the test with OVCAR-3 ovarian; 22.6 µM in the test on K-562 leukemia; 55.7 µM in the test with UACC-62 melanoma; 48 µM in the test with EKVX NSCLC; 60.4 µM in the test on IGROV1 ovarian; 37.9 µM in the test on HOP-92 NSCLC. Besides, the TGI in the test with SK-OV-3 ovarian is 71.4 µM; in the test with RXF 393 renal, 52.7 µM; with UO-31 renal it was 38.8 µM; with KM12 colon it was 58 µM; in the test with NCI/ADR-RES ovarian, 58.8 µM; in the test with SK-MEL-5 melanoma it was 38.3 µM. Moreover, the total growth inhibition concentration (TGI) in the test with NCI-H226 lung was 40.9 µM; in the test with HCC-2998 colon, 38 µM.

Turning to `CCOC(=O)c1csc(NC(=O)CCN2CCCC2)n1`, the TGI in the test on SF-295 CNS, in the test on OVCAR-5 ovarian, in the test with U251 CNS, in the test with NCI-H23 lung, in the test on HL-60(TB) leukemia and with CCRF-CEM leukemia was over 100 µM throughout. For the same molecule, the TGI with OVCAR-3 ovarian, in the test on K-562 leukemia, with UACC-62 melanoma, in the test on EKVX NSCLC, in the test with IGROV1 ovarian and with HOP-92 NSCLC was over 100 µM in each case. Also, the TGI in the test with SK-OV-3 ovarian, in the test with RXF 393 renal, with UO-31 renal, in the test with KM12 colon, in the test with NCI/ADR-RES ovarian and with SK-MEL-5 melanoma was over 100 µM in each case. Further, the TGI in the test on NCI-H226 lung and with HCC-2998 colon was over 100 µM in each case.

Turning to `CCOC(=O)c1csc(NC(=O)CCN2CCN(C)CC2)n1`, the TGI in the test with SF-295 CNS, in the test on OVCAR-5 ovarian, with U251 CNS, with NCI-H23 lung, in the test with HL-60(TB) leukemia and with CCRF-CEM leukemia was over 100 µM in each case. The TGI with OVCAR-3 ovarian, with K-562 leukemia, with UACC-62 melanoma, in the test on HOP-92 NSCLC, in the test on SK-OV-3 ovarian and with RXF 393 renal was over 100 µM each time. Further, the TGI in the test on UO-31 renal, with KM12 colon, in the test with NCI/ADR-RES ovarian, with SK-MEL-5 melanoma, in the test with NCI-H226 lung and in the test on HCC-2998 colon was over 100 µM in each case.
